Test results taken from ChEMBL document CHEMBL3046906, “Effects of acibenzolar-S-methyl on the suppression of Fusarium wilt of cyclamen” (Crop Prot, 2006).
Activity calls are given as the source filed them. The rule behind the calls is not given here.

Experiments:
Cyclamen persicum [1] = assay: Phytotoxicity in Cyclamen persicum seedlings assessed as decrease in effect on flower quality at 10 to 50 ug a.i/ml applied as spray; assay type: organism-based; settings: in vivo, other
Cyclamen persicum [2] = assay: Phytotoxicity in Cyclamen persicum seedlings assessed as decrease in effect on flower number at 10 to 50 ug a.i/ml applied as spray; assay type: organism-based; settings: in vivo, other
Cyclamen persicum [3] = assay: Phytotoxicity in Cyclamen persicum seedlings assessed as decrease in foliar dry mass at 10 to 50 ug a.i/ml applied as spray; assay type: organism-based; design: scale not given: the % may be the effect or the level left; settings: in vivo, other
[4] = system: Fusarium oxysporum f. sp. cyclaminis; assay: Antifungal activity against Fusarium oxysporum f. sp. cyclaminis infested cyclamen seedlings assessed as increase in foliar dry mass at 10 to 50 ug a.i/ml applied as spray; assay type: functional, organism-based
Cyclamen persicum [5] = assay: Phytotoxicity in Cyclamen persicum seedlings assessed as decrease in foliar dry mass at 50 ug a.i/ml applied as spray; assay type: organism-based; design: scale not given: the % may be the effect or the level left; settings: in vivo, other
[6] = system: Fusarium oxysporum f. sp. cyclaminis; assay: Antifungal activity against 1 CFU of Fusarium oxysporum f. sp. cyclaminis infested cyclamen seedlings assessed as increase in foliar dry mass at 50 ug a.i/ml applied as spray relative to untreated control; assay type: functional, organism-based
[7] = system: Fusarium oxysporum f. sp. cyclaminis; assay: Antifungal activity against […] of Fusarium oxysporum f. sp. cyclaminis infested cyclamen seedlings assessed as delay in development of disease symptoms at 50 ug a.i/ml applied as spray relative to untreated control; assay type: functional, organism-based
[8] = system: Fusarium oxysporum f. sp. cyclaminis; assay: Antifungal activity against 1 CFU of Fusarium oxysporum f. sp. cyclaminis infested cyclamen seedlings assessed as delay in development of decrease severity at 50 ug a.i/ml applied as spray; assay type: functional, organism-based
Cyclamen persicum [9] = assay: Phytotoxicity in Cyclamen persicum seedlings assessed as visible damage on leaves at 10 to 50 ug a.i/ml applied as spray; assay type: organism-based; settings: in vivo, topical_or_ocular
[10] = system: Fusarium oxysporum f. sp. cyclaminis; assay: Antifungal activity against Fusarium oxysporum f. sp. cyclaminis infested cyclamen seedlings assessed as delay in development of disease symptoms at 50 ug a.i/ml applied as spray; assay type: functional

SMILES: CSC(=O)c1cccc2nnsc12 [ACIBENZOLAR-S-METHYL]
- Activity (Cyclamen persicum [1]): Non-toxic
- Activity (Cyclamen persicum [2]): Non-toxic
- Activity (Cyclamen persicum [3]): 36%
- Activity [4]: Active
- Activity (Cyclamen persicum [5]): 65%
- Activity [6]: Active
- Activity [7]: Active
- Activity [8]: Active
- Activity (Cyclamen persicum [9]): Non-toxic
- Time [10]: 20 days
